This is an account of results in patent publication US7666900B2, “ABCA1 stabilizer” (Hykes Laboratories LLC, priority 2004, dated 2010).

SMILES strings stand for the structures.

The nature of series [1]: Increase of blood HDL level (rabbit), intravenous microemulsion. The format is in vivo. As to conditions: i.v. microemulsion once a day for 7 days, control = 100. How it is done: The microemulsion (0.5 to 10 mL/body) was administered to each group of 4 rabbits via the ear vein once a day for 7 days. To a control group, a microemulsion containing no test drug was administered in the same manner. Blood was collected in the presence of heparin sodium from the ear vein of each rabbit at 3 hours after the last administration. The blood was centrifuged at 2000 g for 10 minutes to separate plasma. The plasma was applied to electrophoresis using Paragon Electrophoresis System (Beckman Coulter, Inc.) to separate plasma lipoprotein, followed by lipid staining. The images on the gel after the lipid staining were examined to covert the plasma HDL level of each rabbit into a digitized form for the evaluation. In reference to the content amount of each compound in the microemulsion, each blood compound level assumed just after the intravenous administration thereof was set as the dose of each compound.

Series [2] is described as follows: Toxicity test, oral administration to mice for one week. The format is in vivo. From the text: Probucol spiroquinone, probucol diphenoquinone, and probucol bisphenol were orally administered to mice for one week.
Another series deals with ABCA1. In words: ABCA1 expression in THP-1 cells (immunoblotting of total membrane fraction). As to conditions: for ABCA1 Expression Level (Relative Ratio %): PMA-differentiated THP-1 macrophages, compound incorporated into acetyl-LDL, 48 h then 24 h with or without apoAI, non-treated cells = 100; for intracellular ABCA1 expression level compared with non-treated cells (in words): THP-1 cells. It counts as cell-based, human. As for the experimental part:
(§1) THP-1 cells (human leukemia cells: American Type Culture Collection) were cultured for 72 hours in a 10% FBS-RPMI1640 medium (Iwaki Glass Co., Ltd.) under the presence of PMA (phorbol myristate acetate, 3.2×10^−7 M: Wako Pure Chemical Industries, Ltd.) to obtain differentiated macrophages. Probucol spiroquinone (Synthesis Example 1), probucol diphenoquinone (Synthesis Example 2), or probucol bisphenol (Synthesis Example 3) was added to a medium after being incorporated into acetyl-LDL according to a method of Tsujita, et al. [BIOCHEMISTRY, 35, 13011-13020 (1996)]. The cells were cultured in this medium for 48 hours, and then further cultured for 24 hours in the presence or absence of apoAI. The expression levels of intracellular ABCA1 were assayed according to a method disclosed herein below.
The agent-treated cells and non-treated cells were hypotonically disrupted in 5 mM Tris-HCl (pH 8.5), and then centrifuged (650 g for 5 minutes) to precipitate nuclear fractions. The supernatant was centrifuged at 105,000 g for 30 minutes to collect a total membrane fraction. The total membrane was dissolved in a solution containing 0.9 M urea, 0.2% Triton X-100, and 0.1% dithiothreitol, followed by addition of 10% lithium dodecyl sulfate solution at a volume ratio of 1/4. The resultant was subjected to electrophoretic separation using 10% SDS-7% polyacrylamide gel. The separated proteins were transferred and fixed onto PVDF membrane (Bio-Rad), and then subjected to immunoblotting with anti-human ABCA1 rabbit antibody (self-purified by an ordinary technique) to examine expressed ABCA1 protein levels. The obtained bands of the protein were read for density and size with Scion Image (image analysis software: Scion) to convert the results into digitized forms. The relative ratio of the ABCA1 expression level of the drug-treated cells to that of the non-treated cells was calculated to evaluate the ABCA1-expression activity of the assayed compounds.

For the next series, the system named is THP-1 cells. In words: apoAI-dependent HDL-generating reaction in THP-1 cells (cholesterol and phospholipid taken out into the medium). It counts as cell-based, human. The following applies: for Release of HDL Cholesterol (Relative Ratio %) / Release of Phospholipid (Relative Ratio %): apoAI-dependent, non-treated cells = 100. As for the experimental part: as §1
The cultured cells obtained in the same manner as in Assay Example 1 were examined for cholesterol and phospholipid taken out into the medium by the apoAI-dependent HDL-generating reaction, according to a method of Arakawa, et al. [J. LIPID RES., 41, 1952-1962, (2000)]. The results of the drug-treated cells were compared with that of non-treated cells (control). The resulting data were converted into digitized forms as in Assay Example 1, and the relative ratios of the taken out level in the drug-treated cells to that in the non-treated cells were calculated to evaluate the HDL-generating reaction accelerated by the assayed compounds. For comparison, the HDL-generating reaction accelerated by probucol (Wako Pure Chemical Industries, Ltd.) was examined in the same manner as aforementioned.

The nature of series [3]: Increase of blood HDL level (mouse), oral administration. The format is in vivo. The following applies: for Plasma HDL Level (Relative Ratio %): 3 hours after last administration, control = 100. As for the experimental part:
Probucol spiroquinone (Synthesis Example 1: 50 mg/kg or 150 mg/kg) or probucol diphenoquinone (Synthesis Example 2: 50 mg/kg or 150 mg/kg) suspended in a 0.5% carboxymethylcellulose solution was orally administered to each group of 3 or 4 mice once a day for 7 days. To a control group, only the 0.5% carboxymethylcellulose solution was administered in the same manner. Animals were subjected to laparotomy under ether anesthesia at 3 hours after the last administration, and blood was collected in the presence of heparin sodium from the heart of each mouse. The blood was centrifuged at 2000 g for 10 minutes to separate plasma. The plasma was applied to electrophoresis using Paragon Electrophoresis System (Beckman Coulter, Inc.) to separate plasma lipoprotein, followed by lipid staining. The images on the gel after the lipid staining were examined to covert the plasma HDL level of each mouse into a digitized form for the evaluation.

Where [4] appears, read: dose as assumed blood level 0.14 μM.
Where [5] appears, read: dose as assumed blood level 0.57 μM.
[6] abbreviates: 50 mg/kg orally once a day for 7 days.
Setting [7] is: 150 mg/kg orally once a day for 7 days.

As to `CC(C)(C)c1cc(-c2cc(C(C)(C)C)c(O)c(C(C)(C)C)c2)cc(C(C)(C)C)c1O` [Probucol bisphenol, 4,4′-dihydroxy-3,5,3′,5′-tetra-t-butyldiphenyl], the “Plasma HDL Level (Relative Ratio %)” value in series [1] (setting [4]) was 145%. In addition, the “Plasma HDL Level (Relative Ratio %)” value in series [1] (setting [5]) is on record as 135%. For the same compound, the “findings in toxicity test” value in series [2] is listed as “no abnormal findings were observed”. Also, in the series on ABCA1, the “ABCA1 Expression Level (Relative Ratio %)” value came to 153% and the “intracellular ABCA1 expression level compared with non-treated cells (in words)” value is on record as “remarkably elevated”. Further, in the series with THP-1 cells, the “Release of HDL Cholesterol (Relative Ratio %)” value stood at 137% and the “Release of Phospholipid (Relative Ratio %)” value came out at 144%.

For `CC1(C)SC2(C=C(C(C)(C)C)C(=O)C(C(C)(C)C)=C2)C2(C=C(C(C)(C)C)C(=O)C(C(C)(C)C)=C2)S1` [Probucol spiroquinone, 2,4,9,11-tetrakis(1,1-dimethylethyl)-14,14-dimethyl-13,15-dithiadispiro[5.0.5.3]pentadeca-1,4,8,11-tetraene-3,10-dione], the “Plasma HDL Level (Relative Ratio %)” value in series [1] (setting [4]) is reported as 157%; in series [1] (setting [5]), 194%; in series [3] (setting [6]), 120%; in series [3] (setting [7]), 124%. In addition, the “plasma HDL level increase compared with control group” value in series [3] (50 or 150 mg/kg orally once a day for 7 days) is listed as “about 1.2 times”. For the same compound, in series [2], the “findings in toxicity test” value is recorded as “no abnormal findings were observed”. Further, the “ABCA1 Expression Level (Relative Ratio %)” value in the series with ABCA1 was 191%. In addition, the “intracellular ABCA1 expression level compared with non-treated cells (in words)” value in the series with ABCA1 is on record as “remarkably elevated”. The “Release of HDL Cholesterol (Relative Ratio %)” value with THP-1 cells was 148%. The “Release of Phospholipid (Relative Ratio %)” value with THP-1 cells turned out to be 151%.

Turning to `CC(C)(C)C1=CC(=C2C=C(C(C)(C)C)C(=O)C(C(C)(C)C)=C2)C=C(C(C)(C)C)C1=O` [Probucol diphenoquinone, 3,5,3′,5′-tetra-t-butyl-4,4′-diphenoquinone], the “Plasma HDL Level (Relative Ratio %)” value in series [1] (dose as assumed blood level 0.16 μM) stood at 148%; in series [1] (dose as assumed blood level 0.31 μM), 130%; in series [3] (setting [6]), 113%; in series [3] (setting [7]), 180%. Besides, the “findings in toxicity test” value in series [2] was “no abnormal findings were observed”. Also, the “ABCA1 Expression Level (Relative Ratio %)” value with ABCA1 is 173%. Further, the “intracellular ABCA1 expression level compared with non-treated cells (in words)” value in the series with ABCA1 is “remarkably elevated”. In the series with THP-1 cells, the “Release of HDL Cholesterol (Relative Ratio %)” value was determined as 159%. In addition, the “Release of Phospholipid (Relative Ratio %)” value in the series with THP-1 cells is 200%.

With `CC(C)(Sc1cc(C(C)(C)C)c(O)c(C(C)(C)C)c1)Sc1cc(C(C)(C)C)c(O)c(C(C)(C)C)c1` [Probucol, 4,4′-(isopropylidenedithio)bis(2,6-di-t-butylphenol), reference compound], in the series with THP-1 cells, the “apoAI-dependently taken out HDL cholesterol (in words)” value was “no apoAI-dependently taken out HDL cholesterol was observed”, the “level of taken out phospholipid as fraction of non-treated cells” value was “less than ⅓”, the “Release of HDL Cholesterol (Relative Ratio %)” value is 0% and the “Release of Phospholipid (Relative Ratio %)” value was 34%.
